{
  "source": "paper PMC7067850",
  "about": "“Identification of highly potent and selective inhibitor, TIPTP, of the p22phox-Rubicon axis as a therapeutic agent for rheumatoid arthritis” (Scientific Reports, 2020)",
  "key": {"[1]": {"target": "T1, p22phox–Rubicon interaction (Homo sapiens, UniProt P13498)", "T1 construct": "The plasmid encoding full-length of the p22phox (V5-p22phox) and Rubicon (Flag-Rubicon) were previously described; expressed in transfected cells; host or cells: HEK293T (293T) cells, transient co-transfection", "T1 sequence (P13498 1-195)": "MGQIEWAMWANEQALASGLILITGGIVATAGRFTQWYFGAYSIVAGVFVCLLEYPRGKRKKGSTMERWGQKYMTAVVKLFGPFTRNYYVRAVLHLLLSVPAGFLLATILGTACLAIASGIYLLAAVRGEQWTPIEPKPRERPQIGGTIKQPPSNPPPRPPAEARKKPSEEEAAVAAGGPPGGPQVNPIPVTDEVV", "test": "p22phox–Rubicon interaction, co-IP in 293T cells co-transfected with V5-p22phox and Flag-Rubicon", "assay_type": "cell-based", "conditions": "inhibition of p22phox–Rubicon interaction, compounds 0.01-20 μM for 24 h (Supplemental Fig. 5a)", "protocol": "(§1) Immunoblot and immunoprecipitation assays were performed as described previously[18],[23]. For immunoprecipitation, cells were harvested and then lysed in NP-40 buffer supplemented with a complete protease inhibitor cocktail (Roche). After pre-clearing with protein A/G agarose beads (GE Healthcare Life Science) for 1 h at 4 °C, whole-cell lysates were used for immunoprecipitation with the indicated antibodies. Generally, 1–4 μg of commercial antibody was added to 1 ml of cell lysates and incubated at 4 °C for 8 to 12 h. After the addition of protein A/G agarose beads for 6 h, immunoprecipitants were extensively washed with lysis buffer and eluted with SDS loading buffer by boiling for 5 min.\nFor immunoblotting, polypeptides were resolved by SDS-polyacrylamide gel electrophoresis and transferred to a PVDF membrane (Bio-Rad). […] Antibody binding was visualized by chemiluminescence (ECL; Millipore) and detected by a Vilber chemiluminescence analyzer (Fusion SL 3; Vilber Lourmat).\n(a) 293T cells were co-transfected with V5-p22phox and Flag-Rubicon. 12 h post transfection, cells were treated with compound 1 or 2 (0.01, 0.1, 1, 5, 10, 20 μM) for 24 h, and subjected to IP with αFlag, followed by IB with αV5. WCLs were used for IB with αFlag, αV5, or αActin. […]"}, "[2]": {"test_system": "synoviocytes from RA patients", "test": "Synoviocytes from RA patients ex vivo (co-IP, confocal, ELISA, immunoblot)", "assay_type": "cell-based, human", "description": "Synovial tissue specimens were obtained from all female patients with RA (n = 16, 60.5 years ± 6.0) or OA (n = 10, 59.5 years ± 7.2) during open synovectomy or joint replacement surgery at Hanyang University Hospital. All patients gave informed consent, and the procedure was approved by the Ethics Committee of Hanyang University Hospital approved this study (2017-05-003). This study was approved by the bioethics committee of The Red Cross (Seoul, South Korea), which oversees studies using samples from human subjects, and all methods were performed in accordance with the relevant guidelines and regulations.\nas §1\nCell culture supernatants, mice sera and synovial fluid were analyzed for cytokine content using the BD OptEIA ELISA set (BD Pharmingen) for the detection of TNF-α, IL-6, IL-1β, and IL-18. All assays were performed as recommended by the manufacturer.\nFigure 6 TIPTP is active for cells from healthy humans or patients with RA. (a and b) LPS-primed human monocytes were treated with TIPTP (0.01, 0.1, 1 μM) for 30 min, and then activated with ATP for the 30 min. (a) IP with αp22phox or αRubicon, followed by IB with αRubicon or αp22phox. Loading control was used for IB with αActin. (b) Culture supernatants were harvested and analyzed for cytokines by ELISA (left). […] (e) Culture supernatants were harvested and analyzed for cytokines by ELISA (left). […]"}},
  "data": [
    {"compound": "C[C@@H](Oc1cccc(-n2cc3c(n2)CCCC3)c1)C(=O)Nc1nnc(C(F)(F)F)s1", "note": "[TIPTP, (R)-2-(3-(4,5,6,7-tetrahydro-2H-indazol-2-yl)phenoxy)-N-(5-(trifluoromethyl)-1,3,4-thiadiazol-2-yl)propanamide]", "values": [
      {"measurement": "IC50", "setting": "[1]", "result": 100, "unit": "nM"},
      {"measurement": "p22phox–Rubicon interaction", "setting": "[2]; RA patient cells, WB and confocal (Fig. 6c,d)", "result": "efficiently inhibit"},
      {"measurement": "p22phox-NOX2, NOX4, or NOX5 interaction", "setting": "[2]; RA patient synoviocytes (Supplemental Fig. 7)", "result": "not inhibit"},
      {"measurement": "caspase-1 activation, and IL-1β and IL-18 production", "setting": "[2]; freshly isolated RA synoviocytes without NLRP3 agonists (Fig. 6e)", "result": "inhibited in a dose-dependent manner"}
    ]}
  ]
}
